Laboratory results reported in US8013153B2, “Substituted pyrimidine kinase inhibitors” (Janssen Pharmaceutica, N.V., priority 2006, dated 2011).
Read-outs that look alike come from different tables or passages of the source.

Legend:
RET cytoplasmic domain = biological target: T1, RET cytoplasmic domain (Homo sapiens, UniProt P07949); experiment: RET Kinase Screening Assay; type: biochemical
T1 construct: the RET cytoplasmic domain consisting of the last 492 amino acids of the intracellular domain; histidine tag (N); made in house; host or cells: Hi5 insect cells
T1 sequence (P07949 658-1114 limits assumed): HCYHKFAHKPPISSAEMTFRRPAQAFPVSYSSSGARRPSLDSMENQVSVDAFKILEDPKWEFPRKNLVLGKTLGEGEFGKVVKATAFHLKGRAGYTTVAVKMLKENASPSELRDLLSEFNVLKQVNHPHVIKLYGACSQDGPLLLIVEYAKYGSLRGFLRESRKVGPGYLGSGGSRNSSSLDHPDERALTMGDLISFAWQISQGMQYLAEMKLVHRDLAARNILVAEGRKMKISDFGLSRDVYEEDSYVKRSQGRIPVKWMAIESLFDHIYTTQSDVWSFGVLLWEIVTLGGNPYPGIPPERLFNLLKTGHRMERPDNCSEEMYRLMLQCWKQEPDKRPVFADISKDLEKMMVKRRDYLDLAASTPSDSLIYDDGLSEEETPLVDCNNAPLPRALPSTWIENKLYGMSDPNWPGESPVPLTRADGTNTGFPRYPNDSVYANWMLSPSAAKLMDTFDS

murine Aurora-A = biological target: T2, murine Aurora-A (Mus musculus, UniProt P97477); experiment: Aurora-A Screening Assay; type: biochemical
T2 construct: replaced with the full length protein encoding the murine Aurora-A; made in house; host or cells: sf9 insect cells
T2 sequence (P97477 1-395): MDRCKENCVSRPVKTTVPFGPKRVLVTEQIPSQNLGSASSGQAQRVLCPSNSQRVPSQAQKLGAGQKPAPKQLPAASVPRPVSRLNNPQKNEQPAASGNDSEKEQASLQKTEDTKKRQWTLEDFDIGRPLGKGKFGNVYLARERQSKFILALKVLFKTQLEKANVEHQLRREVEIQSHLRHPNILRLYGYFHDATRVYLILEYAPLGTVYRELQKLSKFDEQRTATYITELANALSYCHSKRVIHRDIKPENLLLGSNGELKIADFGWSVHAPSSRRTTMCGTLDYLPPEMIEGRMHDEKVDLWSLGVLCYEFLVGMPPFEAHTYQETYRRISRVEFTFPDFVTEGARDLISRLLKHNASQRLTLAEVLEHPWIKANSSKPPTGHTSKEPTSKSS

HER2 cytoplasmic domain = biological target: T3, HER2 cytoplasmic domain (Homo sapiens, UniProt P04626); experiment: HER2 Kinase Screening Assay; type: biochemical; details: > means no observed 50% inhibition at the indicated test concentration; ~ means approximately 50% inhibition at that concentration
T3 construct: polyhistidine (N)

CDK1:Cyclin-B = biological target: T4, CDK1:Cyclin-B (Homo sapiens, UniProt P06493); experiment: CDK1 Screening Assay; type: biochemical
T4 construct: purchased New England Biolabs, Beverly, Mass; 6020; host or cells: insect cells

A375 malignant melanoma = experiment: Inhibition of in vitro cell proliferation (A375); type: cell-based, human; details: Homo sapiens, A-375, 14C-thymidine incorporation;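 further: cells plated for 24 h, given compound for 24 h, then labelled with 14C-thymidine for another 24 h, with DMSO-only wells as control and counts read by scintillation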
HCT-116 colon carcinoma = experiment: Inhibition of in vitro cell proliferation (HCT116); type: cell-based, human; details: Homo sapiens, HCT-116, 14C-thymidine incorporation;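 further: cells exposed to compound for 24 h, then 14C-thymidine added for a further 24 h and its uptake into DNA counted by scintillation, DMSO-only wells as control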
[1] = test system: HeLa cervical adenocarcinoma; experiment: Inhibition of in vitro cell proliferation (HeLa); type: cell-based, human; details: Homo sapiens, 14C-thymidine incorporation;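 further: cells exposed to compound for 24 h, then labelled 24 h with methyl 14C-thymidine, with uptake into DNA counted by scintillation against DMSO-only control wells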
[2] = biological target: T5, rat VEGF-R2 kinase domain (Rattus norvegicus, UniProt O08775); experiment: VEGF-R2 Screening Assay; type: biochemical
T5 construct: amino acids 786-1343 of the rat VEGF-R2 kinase domain; polyhistidine (N)

[3] = > means no observed 50% inhibition at the indicated test concentration, ~ means approximately 50% inhibition at that concentration, read-out: IC50 VEGF-R2

T4 sequence (P06493 whole entry): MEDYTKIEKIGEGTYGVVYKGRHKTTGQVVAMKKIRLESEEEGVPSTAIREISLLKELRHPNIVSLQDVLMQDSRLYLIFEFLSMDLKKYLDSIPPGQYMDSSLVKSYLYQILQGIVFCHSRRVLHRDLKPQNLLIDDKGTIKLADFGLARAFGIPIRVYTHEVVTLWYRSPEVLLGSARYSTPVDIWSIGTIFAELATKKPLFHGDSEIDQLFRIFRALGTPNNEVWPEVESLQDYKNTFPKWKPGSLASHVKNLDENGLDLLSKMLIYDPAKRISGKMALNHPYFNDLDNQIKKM
T4 sequence (P14635 whole entry partner): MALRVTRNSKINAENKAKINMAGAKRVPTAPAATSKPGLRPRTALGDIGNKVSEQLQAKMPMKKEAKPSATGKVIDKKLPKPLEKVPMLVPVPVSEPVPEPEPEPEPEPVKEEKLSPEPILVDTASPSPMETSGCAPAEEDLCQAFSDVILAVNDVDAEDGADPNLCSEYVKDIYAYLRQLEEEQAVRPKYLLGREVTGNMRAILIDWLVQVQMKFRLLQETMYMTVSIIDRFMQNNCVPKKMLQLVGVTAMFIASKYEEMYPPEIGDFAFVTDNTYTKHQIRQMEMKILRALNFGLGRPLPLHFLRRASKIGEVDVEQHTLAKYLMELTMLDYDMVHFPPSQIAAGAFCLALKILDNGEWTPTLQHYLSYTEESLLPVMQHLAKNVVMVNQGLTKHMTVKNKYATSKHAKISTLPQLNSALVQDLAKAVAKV
T5 sequence (O08775 786-1343): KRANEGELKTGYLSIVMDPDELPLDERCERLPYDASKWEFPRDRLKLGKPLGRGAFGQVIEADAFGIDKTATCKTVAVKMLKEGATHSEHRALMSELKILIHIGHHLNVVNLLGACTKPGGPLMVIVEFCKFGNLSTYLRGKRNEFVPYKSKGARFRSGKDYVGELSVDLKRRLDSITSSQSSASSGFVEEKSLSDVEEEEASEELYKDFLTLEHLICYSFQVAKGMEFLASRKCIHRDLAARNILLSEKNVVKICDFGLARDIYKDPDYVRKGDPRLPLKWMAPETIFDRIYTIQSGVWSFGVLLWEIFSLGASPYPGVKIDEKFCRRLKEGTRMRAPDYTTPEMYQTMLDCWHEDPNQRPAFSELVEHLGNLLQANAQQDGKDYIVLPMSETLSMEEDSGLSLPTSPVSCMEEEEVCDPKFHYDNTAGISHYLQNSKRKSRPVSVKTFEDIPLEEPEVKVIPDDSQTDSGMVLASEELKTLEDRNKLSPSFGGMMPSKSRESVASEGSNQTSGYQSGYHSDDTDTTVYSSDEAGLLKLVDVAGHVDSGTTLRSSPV
T3 sequence (P04626 676-1255 limits assumed): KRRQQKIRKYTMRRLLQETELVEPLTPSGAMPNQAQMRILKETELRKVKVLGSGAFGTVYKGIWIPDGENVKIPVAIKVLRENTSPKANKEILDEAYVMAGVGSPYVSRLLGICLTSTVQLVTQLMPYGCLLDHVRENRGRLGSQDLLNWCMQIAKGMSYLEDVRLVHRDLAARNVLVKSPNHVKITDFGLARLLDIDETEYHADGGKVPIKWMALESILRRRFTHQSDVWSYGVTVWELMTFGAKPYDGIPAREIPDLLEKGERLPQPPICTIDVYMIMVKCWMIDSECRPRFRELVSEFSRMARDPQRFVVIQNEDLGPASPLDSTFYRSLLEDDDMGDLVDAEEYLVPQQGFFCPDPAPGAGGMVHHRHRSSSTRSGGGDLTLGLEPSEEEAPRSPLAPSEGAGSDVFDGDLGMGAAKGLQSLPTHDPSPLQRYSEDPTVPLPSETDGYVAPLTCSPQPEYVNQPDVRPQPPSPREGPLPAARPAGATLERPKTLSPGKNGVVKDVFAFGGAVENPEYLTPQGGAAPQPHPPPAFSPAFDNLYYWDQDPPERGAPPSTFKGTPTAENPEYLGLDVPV

| Structure (SMILES) | IC50 (RET cytoplasmic domain) [µM] | IC50 (murine Aurora-A) [µM] | IC50 (HER2 cytoplasmic domain) [µM] | IC50 (CDK1:Cyclin-B) [µM] | IC50 (A375 malignant melanoma) [µM] | IC50 (HCT-116 colon carcinoma) [µM] | IC50 [1] [µM] | IC50 [2, 3] [µM] | IC50 ([2]; IC50 VEGF-R2) [µM] |
| --- | --- | --- | --- | --- | --- | --- | --- | --- | --- |
| CON=Cc1c(N)ncnc1Oc1cc2cc[nH]c2cc1F [Cpd 8, 4-amino-6-(6-fluoro-1H-indol-5-yloxy)-pyrimidine-5-carbaldehyde O-methyl-oxime] | > 1 | > 10 | > 1 | > 100 | 0.327 | 0.422 | 0.382 |  |  |
| CCON=Cc1c(N)ncnc1Oc1ccc2[nH]c(C)cc2c1F [Cpd 1, 4-amino-6-(4-fluoro-2-methyl-1H-indol-5-yloxy)-pyrimidine-5-carbaldehyde O-ethyl-oxime] | > 100 | > 100 | > 100 | > 100 | 0.027 | 0.036 | 0.032 |  |  |
| CON=Cc1c(N)ncnc1Oc1ccc2ncccc2c1 [Cpd 5, 4-amino-6-(quinolin-6-yloxy)-pyrimidine-5-carbaldehyde O-methyl-oxime] | 2.01 | > 10 | > 100 | > 100 | 1.82 | 2.87 | 3.43 |  |  |
| CON=Cc1c(N)ncnc1Oc1ccc2cccnc2c1 [Cpd 6, 4-amino-6-(quinolin-7-yloxy)-pyrimidine-5-carbaldehyde O-methyl-oxime] | > 10 | > 100 | > 10 | > 100 | 0.886 | 2.62 | 1.82 |  |  |
| CON=Cc1c(N)ncnc1Oc1ccc2[nH]cc(C)c2c1 [Cpd 9, 4-amino-6-(3-methyl-1H-indol-5-yloxy)-pyrimidine-5-carbaldehyde O-methyl-oxime] | > 100 | > 10 | 0.208 | > 100 | 0.132 | 0.385 | 0.306 |  |  |
| CON=Cc1c(N)ncnc1Oc1ccc(NC(=O)Nc2ccccc2F)c(Cl)c1 [Cpd 56, 1-{4-[6-amino-5-(methoxyimino-methyl)-pyrimidin-4-yloxy]-2-chloro-phenyl}-3-(2-fluoro-phenyl)-urea] |  | > 100 | > 10 | > 100 | > 10 | > 10 | > 10 |  | 0.0033 |
| CON=Cc1c(N)ncnc1Oc1ccc(NC(=O)NC(C)C)c(Cl)c1 [Cpd 80, 1-{4-[6-amino-5-(methoxyimino-methyl)-pyrimidin-4-yloxy]-2-chloro-phenyl}-3-isopropyl-urea] |  | > 10 | > 10 | > 100 | > 1 | > 10 | > 10 | 0.0729 |  |
| CCCNC(=O)Nc1ccc(Oc2ncnc(N)c2C=NOC)cc1Cl [Cpd 52, 1-{4-[6-amino-5-(methoxyimino-methyl)-pyrimidin-4-yloxy]-2-chloro-phenyl}-3-propyl-urea] |  | > 100 | > 100 | > 100 | > 1 | > 1 | > 1 |  | 0.0275 |
| CON=Cc1c(N)ncnc1Oc1ccc(NC(=O)NCCN(C)C)c(Cl)c1 [Cpd 82, 1-{4-[6-amino-5-(methoxyimino-methyl)-pyrimidin-4-yloxy]-2-chloro-phenyl}-3-(2-dimethylamino-ethyl)-urea] |  | > 100 | > 10 | > 100 | > 10 | > 10 | > 10 | 0.285 |  |

More lines, main results first:

| IC50 (RET cytoplasmic domain) [µM] | IC50 (murine Aurora-A) [µM] | IC50 (HER2 cytoplasmic domain) [µM] | IC50 (CDK1:Cyclin-B) [µM] | IC50 (A375 malignant melanoma) [µM] | IC50 (HCT-116 colon carcinoma) [µM] | IC50 [1] [µM] | IC50 [2, 3] [µM] | Structure (SMILES) | IC50 ([2]; IC50 VEGF-R2) [µM] |
| --- | --- | --- | --- | --- | --- | --- | --- | --- | --- |
| ~10 | > 100 | > 10 | > 100 |  |  |  |  | C#CCON=Cc1c(N)ncnc1Oc1ccc2[nH]c(C)cc2c1F [Cpd 30, 4-amino-6-(4-fluoro-2-methyl-1H-indol-5-yloxy)-pyrimidine-5-carbaldehyde O-prop-2-ynyl-oxime] |  |
| > 100 | > 100 | > 100 | > 100 | 4.92 | 16.1 | 22.7 |  | Cc1cc2c(F)c(Oc3ncnc(N)c3C=NOCC3CCCCC3)ccc2[nH]1 [Cpd 35, 4-amino-6-(4-fluoro-2-methyl-1H-indol-5-yloxy)-pyrimidine-5-carbaldehyde O-cyclohexylmethyl-oxime] |  |
| > 100 | > 100 | 36.1 | > 100 |  |  |  |  | Cc1cc2c(F)c(Oc3ncnc(N)c3C=NOCCN(C)C)ccc2[nH]1 [Cpd 15, 4-amino-6-(4-fluoro-2-methyl-1H-indol-5-yloxy)-pyrimidine-5-carbaldehyde O-(2-dimethylamino-ethyl)-oxime] |  |
| > 100 | > 100 | > 10 | > 100 | 0.326 | 0.749 | 0.375 |  | CON=Cc1c(N)ncnc1Oc1ccc2c(ccn2C)c1 [Cpd 11, 4-amino-6-(1-methyl-1H-indol-5-yloxy)-pyrimidine-5-carbaldehyde O-methyl-oxime] |  |
| > 100 | > 100 | ~10 | > 100 | 0.233 | 0.387 | 0.308 |  | COCCON=Cc1c(N)ncnc1Oc1ccc2[nH]c(C)cc2c1F [Cpd 28, 4-amino-6-(4-fluoro-2-methyl-1H-indol-5-yloxy)-pyrimidine-5-carbaldehyde O-(2-methoxy-ethyl)-oxime] |  |
| > 100 | > 100 | 10.9 | > 100 | 0.345 | 3.04 | 2.01 |  | CNCCON=Cc1c(N)ncnc1Oc1ccc2[nH]c(C)cc2c1F [Cpd 16, 4-amino-6-(4-fluoro-2-methyl-1H-indol-5-yloxy)-pyrimidine-5-carbaldehyde O-(2-methylamino-ethyl)-oxime] |  |
| > 10 | ~100 | 9.59 | > 100 | 0.372 | 0.323 | 0.406 |  | Cc1cc2c(F)c(Oc3ncnc(N)c3C=NOCCO)ccc2[nH]1 [Cpd 12, 4-amino-6-(4-fluoro-2-methyl-1H-indol-5-yloxy)-pyrimidine-5-carbaldehyde O-(2-hydroxy-ethyl)-oxime] |  |
| > 100 | > 100 | ~10 | > 100 |  |  |  |  | Cc1cc2c(F)c(Oc3ncnc(N)c3C=NOCCN3CCOCC3)ccc2[nH]1 [Cpd 14, 4-amino-6-(4-fluoro-2-methyl-1H-indol-5-yloxy)-pyrimidine-5-carbaldehyde O-(2-morpholin-4-yl-ethyl)-oxime] |  |
|  | > 100 | > 100 | > 100 | 2.69 | 3.62 | 4.02 | 2.21 | CON=Cc1c(N)ncnc1Oc1ccc(NC(C)=O)c(Cl)c1 [Cpd 94, N-{4-[6-amino-5-(methoxyimino-methyl)-pyrimidin-4-yloxy]-2-chloro-phenyl}-acetamide] |  |
|  | > 100 | 0.217 | > 100 | > 100 | > 100 | > 100 | 0.008 | CON=Cc1c(N)ncnc1Oc1ccc(CC(=O)Nc2ccc(C)cc2)cc1 [Cpd 99, 2-{4-[6-amino-5-(methoxyimino-methyl)-pyrimidin-4-yloxy]-phenyl}-N-p-tolyl-acetamide] |  |
|  | > 10 | 0.596 | > 100 | > 100 | 0.1 | > 100 | 0.13 | Cc1cc2c(F)c(Oc3ncnc(N)c3C=NOCCCCN3CCCC3)ccc2[nH]1 [Cpd 25, 4-amino-6-(4-fluoro-2-methyl-1H-indol-5-yloxy)-pyrimidine-5-carbaldehyde O-(4-pyrrolidin-1-yl-butyl)-oxime] |  |
